# Target: T1, sGC α1/β1 heterodimer stably expressed in CHO-K1 cell line (CHO-K1/sGC) (Homo sapiens, UniProt Q02108+Q02153)
# T1 construct: expressed in transfected cells
# T1 sequence (Q02108 1-690): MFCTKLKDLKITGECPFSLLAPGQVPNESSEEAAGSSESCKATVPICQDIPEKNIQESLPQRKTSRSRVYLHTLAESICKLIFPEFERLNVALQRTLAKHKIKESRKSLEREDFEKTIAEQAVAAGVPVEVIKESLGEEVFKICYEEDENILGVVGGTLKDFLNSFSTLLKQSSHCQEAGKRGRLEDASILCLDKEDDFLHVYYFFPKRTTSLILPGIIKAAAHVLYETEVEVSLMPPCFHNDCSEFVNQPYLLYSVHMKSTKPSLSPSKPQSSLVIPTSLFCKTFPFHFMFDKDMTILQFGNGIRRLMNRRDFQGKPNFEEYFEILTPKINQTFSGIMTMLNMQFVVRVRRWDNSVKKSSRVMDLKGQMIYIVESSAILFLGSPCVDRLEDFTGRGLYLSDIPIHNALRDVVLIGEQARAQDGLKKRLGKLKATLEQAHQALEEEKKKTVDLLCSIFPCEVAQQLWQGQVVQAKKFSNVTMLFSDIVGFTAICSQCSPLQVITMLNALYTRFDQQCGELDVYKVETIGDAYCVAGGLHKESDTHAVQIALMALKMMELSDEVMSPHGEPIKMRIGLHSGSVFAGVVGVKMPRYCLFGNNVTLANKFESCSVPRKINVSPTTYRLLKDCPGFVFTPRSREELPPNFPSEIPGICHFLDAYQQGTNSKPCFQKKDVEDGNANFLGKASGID
# T1 sequence (Q02153 1-619): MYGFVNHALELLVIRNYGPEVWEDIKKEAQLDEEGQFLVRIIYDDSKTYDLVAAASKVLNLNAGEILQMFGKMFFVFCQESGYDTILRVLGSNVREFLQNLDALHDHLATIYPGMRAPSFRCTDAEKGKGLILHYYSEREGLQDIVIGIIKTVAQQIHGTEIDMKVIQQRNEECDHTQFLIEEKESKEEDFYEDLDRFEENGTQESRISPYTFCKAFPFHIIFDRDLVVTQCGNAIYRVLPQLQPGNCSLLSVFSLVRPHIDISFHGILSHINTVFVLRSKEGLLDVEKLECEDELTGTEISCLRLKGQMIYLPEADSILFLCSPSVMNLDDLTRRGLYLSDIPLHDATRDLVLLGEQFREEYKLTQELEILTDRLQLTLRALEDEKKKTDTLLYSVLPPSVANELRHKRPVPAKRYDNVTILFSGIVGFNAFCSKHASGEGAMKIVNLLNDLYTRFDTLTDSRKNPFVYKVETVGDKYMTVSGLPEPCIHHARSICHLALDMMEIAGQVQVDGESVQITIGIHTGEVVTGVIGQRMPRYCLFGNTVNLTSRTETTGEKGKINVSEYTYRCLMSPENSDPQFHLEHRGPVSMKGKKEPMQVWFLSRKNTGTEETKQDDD
# Experiment: Cell-based sGC Functional Assay (CASA Assay), cGMP generation
# Details: CHO-K1/sGC cells, 1 hr at 37° C., cGMP by HTRF, 4P fit; presence or absence of 1 μM DETA-NO not given; read-out: IP (nM) (inflection point)
# How it was run: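 Readout is HTRF cGMP in lysates, normalised to the maximal response of reference sGC activator Compound A (100%), with a 4P fit giving IP and fold induction. Cells were CHO-K1/sGC (human α1/β1) in EBSS buffer with IBMX, incubated 1 hr at 37° C with compound. Run with and without 1 μM DETA-NO; final DMSO 2.5%.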
row,EC50 [nM],Structure (SMILES)
1,55.7,"CC1(c2ccc(F)c(F)c2)C(=O)Nc2nc(-c3cn4ncnc4c(CCC(F)(F)F)n3)nc(N)c21 (stereo not drawn) [Example 84B, 4-amino-5-(3,4-difluorophenyl)-5-methyl-2-(8-(3,3,3-trifluoropropyl)-[1,2,4]triazolo[1,5-a]pyrazin-6-yl)-5H-pyrrolo[2,3-d]pyrimidin-6(7H)-one]"
2,10.6,"C[C@@]1(c2ccc(F)cc2)C(=O)Nc2nc(-c3cn4ncnc4c(Cc4ccc(F)cc4)n3)nc(N)c21 [Example 85B, (S)-4-amino-2-(8-(4-fluorobenzyl)-[1,2,4]triazolo[1,5-a]pyrazin-6-yl)-5-(4-fluorophenyl)-5-methyl-5H-pyrrolo[2,3-d]pyrimidin-6(7H)-one]"
3,26.4,"COc1cccc(Cc2nc(-c3nc(N)c4c(n3)NC(=O)[C@@]4(C)c3ccc(F)cc3)cn3ncnc23)c1 [Example 86B, (S)-4-amino-5-(4-fluorophenyl)-2-(8-(3-methoxybenzyl)-[1,2,4]triazolo[1,5-a]pyrazin-6-yl)-5-methyl-5H-pyrrolo[2,3-d]pyrimidin-6(7H)-one]"
4,80.2,"Cc1nc2c(Cc3ccc(F)cc3)nc(-c3nc(N)c4c(n3)NC(=O)[C@@]4(C)c3ccc(F)cc3)cn2n1 [Example 87B, (S)-4-amino-2-(8-(4-fluorobenzyl)-2-methyl-[1,2,4]triazolo[1,5-a]pyrazin-6-yl)-5-(4-fluorophcnyl)-5-methyl-5H-pyrrolo[2,3-d]pyrimidin-6(7H)-one]"
5,65,"Cc1nc2c(CCC(F)(F)C(F)(F)F)nc(-c3nc(N)c4c(n3)NC(=O)[C@@]4(C)c3ccc(F)cc3)cn2n1 [Example 88B, (S)-4-amino-5-(4-fluorophenyl)-5-methyl-2-(2-methyl-8-(3,3,4,4,4-pentafluorobutyl)-[1,2,4]triazolo[1,5-a]pyrazin-6-yl)-5H-pyrrolo[2,3-d]pyrimidin-6(7H)-one]"
6,260,"Cc1nc2c(CCC(F)(F)C(F)(F)F)nc(-c3nc(N)c4c(n3)NC(=O)C4(C)c3ccc(F)cn3)cn2n1 (stereo not drawn) [Example 89B, 4-amino-5-(5-fluoropyridin-2-yl)-5-methyl-2-(2-methyl-8-(3,3,4,4,4-pentafluorobutyl)-[1,2,4]triazolo[1,5-a]pyrazin-6-yl)-5H-pyrrolo[2,3-d]pyrimidin-6(7H)-one]"
7,36.6,"Cc1nc2c(CCC(F)(F)C(F)(F)F)nc(-c3nc(N)c4c(n3)NC(=O)C4(C)c3ccc(Cl)c(F)c3)cn2n1 (stereo not drawn) [Example 90B, 4-amino-5-(4-chloro-3-fluorophenyl)-5-methyl-2-(2-methyl-8-(3,3,4,4,4-pentafluorobutyl)-[1,2,4]triazolo[1,5-a]pyrazin-6-yl)-5H-pyrrolo[2,3-d]pyrimidin-6(7H)-one]"
8,668,"CCCc1nc(-c2nc(N)c3c(n2)NC(=O)[C@@]3(C)c2ccc(F)cc2)cn2nc(C)nc12 [Example 91A, (S)-4-amino-5-(4-fluorophenyl)-5-methyl-2-(2-methyl-8-propyl-[1,2,4]triazolo[1,5-a]pyrazin-6-yl)-5,7-dihydro-6H-pyrrolo[2,3-d]pyrimidin-6-one]"
9,4830,"CCCc1nc(-c2nc(N)c3c(n2)NC(=O)C3(C)c2ccc(F)cn2)cn2nc(C)nc12 (stereo not drawn) [Example 92B, 4-amino-5-(5-fluoropyridin-2-yl)-5-methyl-2-(2-methyl-8-propyl-[1,2,4]triazolo[1,5-a]pyrazin-6-yl)-5H-pyrrolo[2,3-d]pyrimidin-6(7H)-one]"

# Second part, the compound before the results:
row,Structure (SMILES),EC50 [nM]
1,"CC(C)Cc1nc(-c2nc(N)c3c(n2)NC(=O)[C@@]3(C)c2ccc(F)cc2)cn2ncnc12 [Example 73A, (S)-4-amino-5-(4-fluorophenyl)-2-(8-isobutyl-[1,2,4]triazolo[1,5-a]pyrazin-6-yl)-5-methyl-5,7-dihydro-6H-pyrrolo[2,3-d]pyrimidin-6-one]",44.1
2,"C[C@@]1(c2ccc(F)cc2)C(=O)Nc2nc(-c3cn4ncnc4c(CCC(F)(F)F)n3)nc(N)c21 [Example 74A, (S)-4-amino-5-(4-fluorophenyl)-5-methyl-2-(8-(3,3,3-trifluoropropyl)-[1,2,4]triazolo[1,5-a]pyrazin-6-yl)-5,7-dihydro-6H-pyrrolo[2,3-d]pyrimidin-6-one]",55.6
3,"CC1(c2ccc(Cl)c(F)c2)C(=O)Nc2nc(-c3cn4ncnc4c(CCC(F)(F)F)n3)nc(N)c21 (stereo not drawn) [Example 75B, 4-amino-5-(4-chloro-3-fluorophenyl)-5-methyl-2-(8-(3,3,3-trifluoropropyl)-[1,2,4]triazolo[1,5-a]pyrazin-6-yl)-5H-pyrrolo[2,3-d]pyrimidin-6(7H)-one]",20
4,"CC1(c2ccc(Cl)cc2)C(=O)Nc2nc(-c3cn4ncnc4c(CCC(F)(F)F)n3)nc(N)c21 (stereo not drawn) [Example 76A, 4-amino-5-(4-chlorophenyl)-5-methyl-2-(8-(3,3,3-trifluoropropyl)-[1,2,4]triazolo[1,5-a]pyrazin-6-yl)-5H-pyrrolo[2,3-d]pyrimidin-6(7H)-one]",154
5,"CC1(c2ccc(C(F)(F)F)cc2)C(=O)Nc2nc(-c3cn4ncnc4c(CCC(F)(F)F)n3)nc(N)c21 (stereo not drawn) [Example 77B, 4-amino-5-methyl-5-(4-(trifluoromethyl)phenyl)-2-(8-(3,3,3-trifluoropropyl)-[1,2,4]triazolo[1,5-a]pyrazin-6-yl)-5H-pyrrolo[2,3-d]pyrimidin-6(7H)-one]",333
6,"CC1(c2ccc(C(F)(F)F)cn2)C(=O)Nc2nc(-c3cn4ncnc4c(CCC(F)(F)F)n3)nc(N)c21 (stereo not drawn) [Example 78B, 4-amino-5-methyl-5-(5-(tritluoromethyl)pyridin-2-yl)-2-(8-(3,3,3-trifluoropropyl)-[1,2,4]triazolo[1,5-d]pyrazin-6-yl)-5H-pyrrolo[2,3-d]pyrimidin-6(7H)-one]",550
7,"CC1(c2ccc(Cl)cn2)C(=O)Nc2nc(-c3cn4ncnc4c(CCC(F)(F)F)n3)nc(N)c21 (stereo not drawn) [Example 79A, 4-amino-5-(5-chloropyridin-2-yl)-5-methyl-2-(8-(3,3,3-trifluoropropyl)-[1,2,4]triazolo[1,5-a]pyrazin-6-yl)-5H-pyrrolo[2,3-d]pyrimidin-6(7H)-one]",325
8,"Nc1nc(-c2cn3ncnc3c(CCC(F)(F)F)n2)nc2c1C(c1ccc(C(F)(F)F)cn1)(C1CC1)C(=O)N2 (stereo not drawn) [Example 80A, 4-amino-5-cyclopropyl-5-(5-(trifluoromethyl)pyridin-2-yl)-2-(8-(3,3,3-trifluoropropyl)-[1,2,4]triazolo[1,5-a]pyrazin-6-yl)-5H-pyrrolo[2,3-d]pyrimidin-6(7H)-one]",2490
9,"CC1(c2ccc(F)cn2)C(=O)Nc2nc(-c3cn4ncnc4c(CCC(F)(F)F)n3)nc(N)c21 (stereo not drawn) [Example 81B, 4-amino-5-(5-fluoropyridin-2-yl)-5-methyl-2-(8-(3,3,3-trifluoropropyl)-[1,2,4]triazolo[1,5-a]pyrazin-6-yl)-5H-pyrrolo[2,3-d]pyrimidin-6(7H)-one]",698
10,"Nc1nc(-c2cn3ncnc3c(CCC(F)(F)F)n2)nc2c1C(c1ccc(Cl)cn1)(C1CC1)C(=O)N2 (stereo not drawn) [Example 82A, 4-amino-5-(5-chloropyridin-2-yl)-5-cyclopropyl-2-(8-(3,3,3-trifluoropropyl)-[1,2,4]triazolo[1,5-a]pyrazin-6-yl)-5H-pyrrolo[2,3-d]pyrimidin-6(7H)-one]",555
11,"Nc1nc(-c2cn3ncnc3c(CCC(F)(F)F)n2)nc2c1C(c1ccc(F)c(F)c1)(C1CC1)C(=O)N2 (stereo not drawn) [Example 83A, 4-amino-5-cyclopropyl-5-(3,4-difluorophenyl)-2-(8-(3,3,3-trifluoropropyl)-[1,2,4]triazolo[1,5-a]pyrazin-6-yl)-5H-pyrrolo[2,3-d]pyrimidin-6(7H)-one]",270

# Same assay, conditions: CHO-K1/sGC cells, 1 hr at 37° C., cGMP by HTRF; presence or absence of 1 μM DETA-NO not given; read-out: % Act. (percent activation relative to maximum cGMP production of Compound A = 100%)
row,Emax [%],Structure (SMILES)
1,100,"Nc1nc(-c2cn3ncnc3c(CCC(F)(F)F)n2)nc2c1C(c1ccc(F)c(F)c1)(C1CC1)C(=O)N2 (stereo not drawn) [Example 83A, 4-amino-5-cyclopropyl-5-(3,4-difluorophenyl)-2-(8-(3,3,3-trifluoropropyl)-[1,2,4]triazolo[1,5-a]pyrazin-6-yl)-5H-pyrrolo[2,3-d]pyrimidin-6(7H)-one]"

# Source: patent US9822130B2, “Triazolo-pyrazinyl derivatives useful as soluble guanylate cyclase activators” (Merck Sharp & Dohme Corp., priority 2014, dated 2017)
